From patent US5990118A, “Purine compounds and xanthine oxidase inhibitors” (Yamasa Corporation, priority 1995, dated 1999) come the findings set out here.

The experiment concerns the target T1, bovine-milk-derived xanthine oxidase (XOD) (Bos taurus, UniProt P80457).
T1 construct: from tissue; host or cells: bovine milk
Briefly: Xanthine oxidase inhibitory activity (inhibition of uricogenesis from xanthine, absorbance at 292 nm). The experiment is classed as biochemical. The conditions noted are these: xanthine 100 μM, XOD 10 mU/ml, 50 mM phosphate buffer pH 7.4, 15 minutes, room temperature. As to the method:
Test Example: Xanthine oxidase inhibitory activity
Xanthine (100 μM), bovine-milk-derived xanthine oxidase (XOD) (10 mU/ml), and a test compound were mixed in 50 mM phosphate buffer (pH 7.4), and the mixture was incubated for 15 minutes at room temperature. Transformation of xanthine into uric acid was measured as the change in absorbance (O.D.) at 292 nm, to thereby investigate the inhibitory effect of the test compound against uricogenesis.
The inhibition ratio against uricogenesis was calculated from the following equation, and a dose-response curve of each compound was obtained.
Inhibition ratio against uricogenesis (%)=100-[(D-DB)/T]×100
T: O.D. of a solution of "xanthine+XOD"
D: O.D. of a solution of "test compound+xanthine+XOD"
DB: O.D. of a solution of "test compound+XOD"

Molecules are shown by their SMILES.

As a reminder, the IC50 is the concentration that inhibits the measured activity by half.

T1 sequence (P80457 whole entry): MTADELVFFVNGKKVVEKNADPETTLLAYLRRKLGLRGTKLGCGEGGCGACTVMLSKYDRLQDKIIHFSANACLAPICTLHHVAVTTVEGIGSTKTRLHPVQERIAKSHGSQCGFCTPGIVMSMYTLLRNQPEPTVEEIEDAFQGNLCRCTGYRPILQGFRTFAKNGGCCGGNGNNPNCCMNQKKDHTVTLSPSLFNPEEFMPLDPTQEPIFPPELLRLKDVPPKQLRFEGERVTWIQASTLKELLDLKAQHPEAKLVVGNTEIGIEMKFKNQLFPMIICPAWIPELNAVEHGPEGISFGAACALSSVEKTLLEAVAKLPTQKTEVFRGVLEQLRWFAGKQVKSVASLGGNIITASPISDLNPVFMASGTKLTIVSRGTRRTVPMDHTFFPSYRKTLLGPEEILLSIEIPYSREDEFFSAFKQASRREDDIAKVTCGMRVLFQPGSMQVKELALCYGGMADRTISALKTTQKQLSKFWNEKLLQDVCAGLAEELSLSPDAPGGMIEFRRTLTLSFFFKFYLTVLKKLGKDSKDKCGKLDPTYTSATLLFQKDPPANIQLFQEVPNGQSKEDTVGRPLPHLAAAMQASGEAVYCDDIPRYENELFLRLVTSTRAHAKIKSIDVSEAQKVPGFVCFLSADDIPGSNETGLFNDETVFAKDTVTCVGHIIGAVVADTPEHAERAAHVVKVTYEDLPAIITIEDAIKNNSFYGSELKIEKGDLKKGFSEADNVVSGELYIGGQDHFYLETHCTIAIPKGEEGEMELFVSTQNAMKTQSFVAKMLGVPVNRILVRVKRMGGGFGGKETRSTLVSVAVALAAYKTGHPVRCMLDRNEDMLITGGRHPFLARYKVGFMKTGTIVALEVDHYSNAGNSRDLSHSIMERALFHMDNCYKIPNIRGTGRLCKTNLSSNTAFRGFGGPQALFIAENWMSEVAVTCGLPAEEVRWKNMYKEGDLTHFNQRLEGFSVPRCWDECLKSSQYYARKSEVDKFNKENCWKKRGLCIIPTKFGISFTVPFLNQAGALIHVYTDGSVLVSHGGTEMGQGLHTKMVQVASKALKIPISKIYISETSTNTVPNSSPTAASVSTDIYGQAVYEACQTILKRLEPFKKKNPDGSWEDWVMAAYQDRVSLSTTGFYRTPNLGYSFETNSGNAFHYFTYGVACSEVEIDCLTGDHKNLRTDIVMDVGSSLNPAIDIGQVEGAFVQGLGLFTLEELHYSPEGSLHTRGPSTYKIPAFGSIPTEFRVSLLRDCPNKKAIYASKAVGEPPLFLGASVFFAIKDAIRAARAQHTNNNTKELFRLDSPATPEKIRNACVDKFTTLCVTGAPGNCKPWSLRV

`CN(C)c1ccc(C=NNc2nc(Cl)nc3[nH]cnc23)cc1` [Compound 3f, 2-chloro-6-p-N,N-dimethylaminobenzylidenehydrazino-9H-purine] showed an IC50 of 2320 nM.
The figure for `S=c1[nH]c2[nH]cnc2c2nnc(-c3ccccc3)n12` [Compound 5c, 3-phenyl-7H-[1,2,4]triazolo[3,4-i]purine-5(6H)-thione] is 2950 nM; for `Oc1ccc(C=NNc2nc(Cl)nc3[nH]cnc23)cc1` [Compound 3i, 2-chloro-6-p-hydroxybenzylidenehydrazino-9H-purine] it is 764 nM; for `O=c1[nH]c2[nH]cnc2c2nnc(-c3ccc(Cl)cc3)n12` [Compound 11e, 3-p-chlorophenyl-7H-[1,2,4]triazolo[3,4-i]purine-5(6H)-one] it is 156 nM.
The figure for `O=c1[nH]c2[nH]cnc2c2nnc(-c3ccccc3)n12` [Compound 11c, 3-phenyl-7H-[1,2,4]triazolo[3,4-i]purine-5(6H)-one] is 2570 nM; for `CN(C)c1ccc(C=NNc2nc(=S)[nH]c3[nH]cnc23)cc1` [Compound 17b, 6-p-N,N-dimethylaminobenzylidenehydrazino-9H-purine-2(3H)-thione] it is 865 nM.
`COc1ccc(C=NNc2nc(=S)[nH]c3[nH]cnc23)cc1` [Compound 17d, 6-p-methoxybenzylidenehydrazino-9H-purine-2(3H)-thione] yielded an IC50 of 969 nM.
As for `S=c1nc(NN=Cc2ccc3c(c2)OCO3)c2nc[nH]c2[nH]1` [Compound 17e, 6-(3,4-methylenedioxybenzylidenehydrazino)-9H-purine-2(3H)-thione], the figure is 235 nM; as for `Fc1ccc(C=NNc2nc(=S)[nH]c3[nH]cnc23)cc1` [Compound 17a, 6-p-fluorobenzylidenehydrazino-9H-purine-2(3H)-thione], 336 nM.
In turn, `Fc1ccc(C=NNc2nc(Cl)nc3[nH]cnc23)cc1` [Compound 3c, 2-chloro-6-p-fluorobenzylidenehydrazino-9H-purine] registered an IC50 of 1960 nM.
The figure for `COc1ccc(C=NNc2nc(Cl)nc3[nH]cnc23)cc1` [Compound 3e, 2-chloro-6-p-methoxybenzylidenehydrazino-9H-purine] is 801 nM; for `O=[N+]([O-])c1ccc(C=NNc2nc(=S)[nH]c3[nH]cnc23)cc1` [Compound 17c, 6-p-nitrobenzylidenehydrazino-9H-purine-2(3H)-thione] it is 1180 nM.
The figure for `Clc1nc(NN=Cc2ccc3c(c2)OCO3)c2nc[nH]c2n1` [Compound 3g, 2-chloro-6-(3,4-methylenedioxybenzylidenehydrazino)-9H-purine] is 1150 nM; for `CN(N=Cc1ccc(F)cc1)c1nc(=S)[nH]c2[nH]cnc12` [Compound 19b, 6-[2-(4-fluorobenzylidene)-1-methylhydrazino]-9H-purine-2(3H)-thione] it is 667 nM.
`Cc1nnc2c3nc[nH]c3[nH]c(=S)n12` [Compound 5b, 3-methyl-7H-[1,2,4]triazolo[3,4-i]purine-5(6H)-thione] displayed an IC50 of 7910 nM.
As for `COc1ccc(C=NN(C)c2nc(=S)[nH]c3[nH]cnc23)cc1` [Compound 19a, 6-[2-(4-methoxybenzylidene)-1-methylhydrazino]-9H-purine-2(3H)-thione], the figure is 681 nM; as for `Clc1nc(NN=Cc2ccccc2)c2nc[nH]c2n1` [Compound 3b, 6-benzylidenehydrazino-2-chloro-9H-purine], 2710 nM.
As to `Clc1ccc(C=NNc2nc(Cl)nc3[nH]cnc23)cc1` [Compound 3d, 2-chloro-6-p-chlorobenzylidenehydrazino-9H-purine], the IC50 is 927 nM. Against the preceding molecule, the IC50 is about 2.9-fold lower.
Regarding `COc1ccc(-c2nnc3c4nc[nH]c4[nH]c(=S)n23)cc1` [Compound 5d, 3-p-methoxyphenyl-7H-[1,2,4]triazolo[3,4-i]purine-5(6H)-thione], the IC50 came out at 3020 nM.
